Data on four compounds can be found in patent publication US5723114A, “Penetration enhancing compositions and methods of their use” (Cellegy Pharmaceuticals Inc., priority 1996, dated 1998).

For data set [1], the system named is skin barrier (stratum corneum, treated flank of hairless mouse). In words: TEWL (water permeability) after oleic acid treatment and application of drug delivery compound. Type of data set: in vivo. The note with it: for TEWL (T = 4 hours): vehicle 266±22; for water permeability: words. The protocol: (§1) A female hairless mouse, aged 8 weeks, was treated with oleic acid. After oleic acid treatment, epicholesterol, which substitutes for cholesterol, or transvaccenic acid or stearyl amine, both of which substitute for free fatty acid, was applied to the animal.
TEWL (trans-epidermal water loss) was measured before and after treatment at convenient time intervals when the animal was alert. An Evaperimeter (ServoMed) was used.
(§2) First, TEWL of the left (LHS) and right (RHS) dorsal sides was measured. Then, the animal was anesthetized by 0.25 ml chloral hydrate (CH) IP injection. At t=0, an aliquot of 30 μl oleic acid solution (5% in propylene glycol/ethanol 7:3 (v/v)) was applied directly to both sides of the animal (~1.5×3 cm) using a Hamilton syringe. Two hours after oleic acid treatment, the TEWL rates of both sides were measured, and the RHS was treated with 30 μl of epicholesterol alone and with transvaccenic acid or stearylamine (1.5% in propylene glycol/ethanol 7:3 (v/v)). TEWL was measured thereafter every 2 or 3 hours.
(§3) The mice were kept under anesthesia until the harvest of tissue samples and then sacrificed. At time zero, the tested drug delivery compound listed in Tables 2, 3 and 4 below was applied to the whole treated flank of each mouse. After four hours TEWL was measured again and two drug formulations,one containing lidocaine in a vehicle of a mixture of propylene glycol and ethanol and the other containing Leuteinizing Hormone Releasing Hormone (LHRH) in a vehicle of 60% ethanol, 20% propylene glycol and 20% water. Residual formulation was removed from the skin surface with cotton balls three times and the cotton balls were put into vial #1. Five tape-strippings were conducted at the treated skin sites, and each tape was put into an individual vial numbered 2-6. At the same time, blood was drawn and stored under refrigeration. Urine was collected from the mice during the two hour drug application period and placed into vial #8.

Data set [2] in a line: Percutaneous lidocaine delivery (scintillation counting of plasma and body). Further details: species or system hairless mouse. As to conditions: mouse, in vivo. On the procedure: as §1, §2, §3
After an additional two hours, the treated skin was cut off, the subcutaneous fat was removed, and the whole skin was placed into vial #7 to which 1 ml of tissue solubilizer was added, and the mixture was allowed to digest overnight at 55° C. The corpse was digested in 100 ml of saponification mix at 55° C. overnight.
For analysis, 10 ml of Scintisafe (30% ) Scintillation media (Fisher Scientific, Fairlawn, N.J.) was added to vials 1-6, and 8. The blood samples were centrifuged, and an aliquot of 100-200 μl was placed into vial #9 and 10 ml of Scintisafe (30%) was added. Similar aliquots of the corpse digest were placed into vials #10 and #11. To vials #9, 10, and 11, 100 μl of 30% hydrogen peroxide was added to decolorize the contents for about two hours. Then […] of Scintisafe (30%) and 150 μl of acetic acid were added and the mixture was let stand overnight. All vials were subjected to scintillation counting as described above. The parameters for the vehicle are as follows: TEWL 266±22 (T=4 hours); plasma concentration 0.31±0.03%; total body concentration 13.13±0.83(% dose/ml plasma); N=14.

The subject of data set [3] is skin barrier (flanks of hairless mice). Kind of data set: TEWL topical studies: barrier recovery after acetone or tape stripping with topical proton-pump inhibitors. Type of data set: in vivo. The note with it: DCCD-treated skin immersed in an acidic buffer. The protocol:
Proton-pump inhibitors: N,N'-dicyclohexylcarbodiimide (DCCD); 1-10 mM); N-ethyl maleimide (NEM; 1 mM); 7-chloro-4-nitrobenz-2-oxa-1,3-diazole (NBD Cl; 1 mM) and bafilomycin A1 (10 μM) were prepared in vehicle (i.e., 70% propylene glycol, 30% ethanol). Flanks of hairless mice were pre-treated for 30 minutes to 1 hour with drug or vehicle alone before breaking the barrier with acetone. TEWL readings were taken at various time points as described above, followed by additional treatments with drug or vehicle. The DCCD-override study included immersion of flanks in HEPES buffer at pH 5.5 or 7.4 after the pre-treatment with either drug or vehicle and after breaking the barrier with either acetone or by tape stripping.
Test results are shown in FIG. 7 (NEM, NBD-chloride, BAF).

Setting [4] is: Table 2/Table 3, no hourly application, TRIS 50 mM, HEPES 20 mM.

Each structure is given as a SMILES string. Where a name gives a salt, the structure may show the parent alone.

On to `O=S(=O)(O)CCN1CCN(CCO)CC1` [HEPES, (N-[2-Hydroxyethyl]piperazine-N'-[2-ethanesulfonic acid])], for which the “TEWL (T = 4 hours)” value in data set [1] (Table 2/Table 3, hourly application, HEPES 20 mM, listed as HEPES (pH 5.5)) is reported as 560 ± 125; in data set [1] (Table 2/Table 3, hourly application, HEPES 20 mM, listed as HEPES (pH 7.4)), 460 ± 24; in data set [1] (setting [4]) it was 360 ± 18. The water permeability result is reported as “approached statistical significance (p=0.05-0.10)” in data set [1] (alone, single application, pH 5.4); “significant increases” in data set [1] (hourly to maintain pH 5.5); “increased water permeability was significant” in data set [1] (hourly to maintain pH 7.4). Also, the results for the lidocaine delivery result in data set [2] (pH 5.4), in data set [2] (pH 5.5) and in data set [2] (pH 7.4) were “approached statistical significance (p=0.05-0.10)”, “significant increases” and “only increased water permeability was significant”, respectively.

Turning to `C(=NC1CCCCC1)=NC1CCCCC1` [DCCD, N,N'-dicyclohexylcarbodiimide], the “barrier recovery, override study” value in data set [3] is “normalized (corrected) the rate of barrier recovery”.

As to `NC(CO)(CO)CO` [TRIS, Tris(hydroxymethyl) aminomethyl maleate], in data set [1] (setting [4]), the “TEWL (T = 4 hours)” value was 583 ± 109. Moreover, the water permeability result in data set [1] (alone, pH 5.5) was “significantly increased”. Moreover, the lidocaine delivery entry in data set [2] (pH 5.5) was “very significantly (p≤0.001) increased”.

Regarding `CC(C)CCC[C@@H](C)[C@H]1CC[C@H]2[C@@H]3CC=C4C[C@H](O)CC[C@]4(C)[C@H]3CC[C@]12C` [epicholesterol], the “TEWL (T = 4 hours)” value in data set [1] (Table 4, synthetic lipid analogs in propylene glycol/ethanol) was 397 ± 55. Also, in data set [2], the “Plasma Conc. (lidocaine)” value is 0.24 ± 0.05 % dose/ml plasma, the “Total Body Conc. (lidocaine)” value is given as 11.40 ± 1.98% and the lidocaine delivery result is given as “significantly increased”.
